Columns and labels:
[1] = system: TNF-alpha production by lipopolysaccharide-stimulated macrophages; assay: Effect on TNF-alpha production by lipopolysaccharide-stimulated macrophages (ELISA); format: cell-based, C3H/HeNCrj mice; details: five-hour culture
Experimental: Effect on TNF-Alpha Production by Lipopolysaccharide-Stimulated Macrophages Gatifloxacin was added to a culture medium at a concentration of 1, 10, or 100 μg/mL. One mL of 3% thioglycolate culture medium (Sigma) was intraperitoneally administered to C3H/HeNCrj mice (male, 11 weeks old) to induce macrophages. Six days after the administration, the animals were sacrificed, and then 10 mL of sterile RPMI 1640 (GIBCO BRL; 10% FBS-RPMI) containing 100 U/mL penicillin-100 μg/mL streptomycin (GIBCO BRL) and 10 v/v % fetal bovine serum (FBS) was intraperitoneally injected. After gentle massage of the abdomen, the 10% FBS-RPMI was collected from the abdomen cavity. After the collected 10% FBS-RPMI was centrifuged, the supernatant was removed and the peritoneal exudate cells including macrophages were harvested. The harvested peritoneal exudate cells were suspended in 10% FBS-RPMI at a concentration of […], and the suspension was plated in each well of a 24-well plate. After incubation for 1.5 hours, non-adherent cells were washed out with 10% FBS-RPMI, and macrophages adhering to the plate were obtained. […] Each content of TNF-alpha in the culture supernatant was determined by using an enzyme immunoassay (ELISA).

[2] = system: methicillin-resistant Staphylococcus aureus (MRSA) O-271 strain ocular infection; assay: Rabbit ocular infection: scoring of corneal and conjunctival findings; format: in vivo, Japanese White Rabbits
Experimental: Antiinflammatory Effects on Rabbit Ocular Infection
(§1) The subject substances used for the test include […], 0.3 w/v % and 0.5 w/v % gatifloxacin eye drops. The control substances used include a 0.3 w/v % ofloxacin eye drop, a 0.5 w/v % levofloxacin eye drop and a physiological saline.
(§2) Japanese White Rabbits (male, 1.74 to 2.30 kg in weight) were generally anesthetized, and then 30 μL of 3.1×10^5 CFU/mL methicillin-resistant Staphylococcus aureus (MRSA) O-271 strain suspension was injected into a corneal stroma of each rabbit via a 27 gauge injection needle attached to a 100 μL microsyringe.
(§3) Five hours and 24 hours after the bacterial inoculation, 50 μL of each test substance was instillated into the rabbit eye using a micropipet. In the observation carried out 8, 16, 24, 32, and 48 hours after the bacterial inoculation, symptoms such as opacity of cornea, and redness and edema of conjunctiva were observed and scored based on the criteria as shown in Table 1. Each rabbit was sacrificed 52 hours after the bacterial inoculation, and then the eyeball was enucleated and cornea and conjunctiva were cut out. These tissue sections were morcellated in 2 mL of a physiological saline, diluted, and plated onto a Mueller-Hinton agar medium, and then the viable bacterial number was determined by counting the colonies formed after 48 hours.

[3] = system: methicillin-resistant Staphylococcus aureus (MRSA) O-271 strain; assay: Rabbit ocular infection: viable bacterial number in corneal and conjunctival tissues; format: in vivo, Japanese White Rabbits; details: for Viable Bacterial Number (CFU/Cornea): 52 hours after inoculation, average
Experimental: as §1, §2, §3

SMILES	concentration significantly suppressing the increase in TNF-alpha content ([1]; in combination with LPS 1 μg/mL, Williams' test)	inhibition of LPS-stimulated TNF-alpha production (TNF-alpha content of culture supernatant) ([1]; mouse peritoneal macrophages, LPS 1 μg/mL, gatifloxacin 1, 10 or 100 μg/mL)	symptoms of the corneal infection (total cornea score) ([2]; 0.1, 0.3 and 0.5 w/v % eye drops, 50 μL at 5 and 24 h after inoculation, observed until 48 hours)	conjunctival findings (total conjunctiva score) ([2]; 0.3 w/v % and 0.5 w/v % eye drops, after 32 hours)	conjunctival findings (total conjunctiva score) ([2]; 0.5 w/v % eye drop, after 48 hours)	symptoms of the corneal infection (total cornea score) ([2]; 0.5 w/v % eye drop, until 48 hours after inoculation)	symptoms of the corneal infection (total cornea score), comparison with ofloxacin ([2]; eye drop concentration of 0.3 w/v % or more, vs 0.3 w/v % ofloxacin eye drop)	Viable Bacterial Number (CFU/Cornea) ([3]; 0.1% eye drop)	viable bacterial number in the corneal tissue (in words) ([3]; 0.1, 0.3 and 0.5 w/v % eye drop groups)	Viable Bacterial Number (CFU/Cornea) ([3]; 0.3% eye drop)	Viable Bacterial Number (CFU/Cornea) ([3]; 0.5% eye drop)	viable bacterial number in the corneal tissue (in words) ([3]; 0.5 w/v % eye drop)
COc1c(N2CCNC(C)C2)c(F)cc2c(=O)c(C(=O)O)cn(C3CC3)c12 (racemic) [Gatifloxacin, (±)-1-cyclopropyl-6-fluoro-1,4-dihydro-8-methoxy-7-(3-methyl-1-piperazinyl-4-oxo-3-quinolinecarboxylic acid]	≥ 1 µg/mL	dose-dependently inhibited	dose-dependently inhibited	stronger inhibitory effect than the ofloxacin or the levofloxacin eye drop group	significantly stronger inhibitory effect than the 0.5 w/v % levofloxacin eye drop group	strong inhibitory effect	stronger inhibitory effect than the 0.3 w/v % ofloxacin eye drop group	1.3 × 10^4 CFU/Cornea	decreased dose-dependently	1.1 × 10^3 CFU/Cornea	3.9 × 10^2 CFU/Cornea	greatly decreased
C[C@H]1COc2c(N3CCN(C)CC3)c(F)cc3c(=O)c(C(=O)O)cn1c23 [Levofloxacin]	–	–	–	–	–	–	–	–	–	–	4.4 × 10^2 CFU/Cornea	–
CC1COc2c(N3CCN(C)CC3)c(F)cc3c(=O)c(C(=O)O)cn1c23 (centres unmarked) [Ofloxacin]	–	–	–	–	–	–	–	–	–	2.0 × 10^5 CFU/Cornea	–	–
